# In US20230295087A1, “AGONISTS OF ROR GAMMAt” (BRISTOL-MYERS SQUIBB COMPANY, priority 2019, published 2023):
# Biological target: T1, human RORgT (Homo sapiens, UniProt P51449)
# T1 construct: expressed in transfected cells
# T1 sequence (P51449 267-516): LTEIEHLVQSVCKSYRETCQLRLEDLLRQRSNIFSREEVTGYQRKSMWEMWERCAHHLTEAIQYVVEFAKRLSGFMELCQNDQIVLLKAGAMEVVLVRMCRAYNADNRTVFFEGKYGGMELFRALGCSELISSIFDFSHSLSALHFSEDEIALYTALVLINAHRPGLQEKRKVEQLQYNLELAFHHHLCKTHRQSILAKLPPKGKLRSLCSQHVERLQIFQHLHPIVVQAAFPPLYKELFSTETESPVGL
# Assay: RORgT Gal4 Luciferase Reporter Gene Assay
# Type: cell-based
# Settings: engineered Jurkat cells overexpressing RORgT (LBD or full length) fused with Gal4 Luc reporter; 18 hours at 37° C.; luminescence
# Description: RORgT Gal4 Luciferase Reporter Gene Assay
# 25 µL of cryopreserved Jurkat cells over expressing ligand binding domain (LBD) of RORgT (aa267-516, NM_005060) and Gal4 Luc, or full length of human RORgT and Gal4 Luc, were plated in 384-well solid white cell culture plates (PerkinElmer 6007899), with a density of 10,000 cells/well in RPMI 1640 cell culture media (Gibco 11875-085). The media contained 0.1% BSA, 10 mM HEPES (Gibco 15360-080), […] Sodium Pyruvate (Gibco 11360-040), […] Hygromycin B (Invitrogen 10687-010), and […] Blasticidin (Invitrogen R210-01).
# 100 nL of compound at varying concentrations in 3-fold serial dilution, with final concentrations ranging from 40 µM to 0.67 nM, were added to the cells using Labcyte Echo 550. The compound and the cells were incubated for 18 hours at 37° C. in a cell culture incubator. Cells were then lysed with 15 uL of Steady-Glo Luciferase Assay reagent (Promega EZ550), followed by centrifuging the assay plates at 1500 RPM for 1 minute. Subsequently, the plates were read on the Envision (PerkinElmer). The inhibition of constitutive activity of RORgT achieved by graded concentrations of compound was calculated as a percentage of the luminescence signal window reduction over a control compound.
row,EC50,SMILES
1,8.2 nM,O=C(CC1CCS(=O)(=O)C1)N1CC[C@@]2(S(=O)(=O)c3ccc(F)cc3)c3ccc(OCc4c(F)cccc4C(F)(F)F)cc3CC[C@@H]12 (mixture of isomers) [Example 17]
2,8.4 nM,"O=C(O)[C@H]1CC[C@H](C(=O)N2CC[C@@]3(S(=O)(=O)c4ccc(F)cc4)c4ccc(OCc5c(F)cccc5Cl)cc4CC[C@@H]23)CC1 [Example 1, (1r,4r)-4-[(3aR,9bR)-7-[(2-chloro-6-fluorophenyl)methoxy]-9b-(4-fluorobenzenesulfonyl)-1H,2H,3H,3aH,4H,5H,9bH-benzo[e]indole-3-carbonyl]cyclohexane-1-carboxylic acid]"
3,6.8 nM,"O=C(O)[C@H]1CC[C@H](C(=O)N2CC[C@@]3(S(=O)(=O)c4ccc(F)cc4)c4ccc(CCc5c(Cl)cccc5Cl)cc4CC[C@@H]23)CC1 [Example 2, (1r,4r)-4-[(3aR,9bR)-7-[2-(2,6-dichlorophenyl)ethyl]-9b-(4-fluorobenzenesulfonyl)-1H,2H,3H,3aH,4H,5H,9bH-benzo[e]indole-3-carbonyl]cyclohexane-1-carboxylic acid]"
4,10 nM,"O=C(O)[C@H]1CC[C@H](C(=O)N2CC[C@@]3(S(=O)(=O)c4ccc(F)cc4)c4ccc(Oc5c(F)cccc5C(F)(F)F)cc4CC[C@@H]23)CC1 [Example 4, (1R,4r)-4-((3aR,9bR)-7-(2-fluoro-6-(trifluoromethyl)phenoxy)-9b-((4-fluorophenyl)sulfonyl)-2,3,3a,4,5,9b-hexahydro-1H-benzo[e]indole-3-carbonyl)cyclohexane-1-carboxylic acid]"
5,7.1 nM,"O=C(O)[C@H]1CC[C@H](C(=O)N2CC[C@@]3(S(=O)(=O)c4ccc(F)cc4)c4ccc(Cc5c(F)cccc5Cl)cc4CC[C@@H]23)CC1 [Example 5, (1R,4r)-4-((3aR,9bR)-7-(2-chloro-6-fluorobenzyl)-9b-((4-fluorophenyl)sulfonyl)-2,3,3a,4,5,9b-hexahydro-1H-benzo[e]indole-3-carbonyl)cyclohexanecarboxylic acid]"
6,2.4 nM,"O=C(O)[C@H]1CC[C@H](C(=O)N2CC[C@@]3(S(=O)(=O)c4ccc(F)cc4)c4ccc(COc5c(Cl)cccc5Cl)cc4CC[C@@H]23)CC1 [Example 6, (1R,4r)-4-((3aR,9bR)-7-((2,6-dichlorophenoxy)methyl)-9b-((4-fluorophenyl)sulfonyl)-2,3,3a,4,5,9b-hexahydro-1H-benzo[e]indole-3-carbonyl)cyclohexanecarboxylic acid]"
7,22 nM,"CC1(C(=O)N2CC[C@@]3(S(=O)(=O)c4ccc(F)cc4)c4ccc(OCc5c(F)cccc5Cl)cc4CC[C@@H]23)CCS(=O)(=O)CC1 [Example 7, ((3aR,9bR)-7-((2-chloro-6-fluorobenzyl)oxy)-9b-((4-fluorophenyl)sulfonyl)-4,5-dihydro-1H-benzo[e]indol-3(2H,3aH,9bH)-yl)(4-methyl-1,1-dioxidotetrahydro-2H-thiopyran-4-yl)methanone]"
8,17 nM,"C[C@]1(C(=O)N2CC[C@@]3(S(=O)(=O)c4ccc(F)cc4)c4ccc(OCc5c(F)cccc5Cl)cc4CC[C@@H]23)CC[C@H](C(=O)O)CC1 [Example 9, (1R,4r)-4-((3aR,9bR)-7-((2-chloro-6-fluorobenzyl)oxy)-9b-((4-fluorophenyl)sulfonyl)-2,3,3a,4,5,9b-hexahydro-1H-benzo[e]indole-3-carbonyl)-4-methylcyclohexanecarboxylic acid]"
9,39 nM,O=C(O)[C@H]1CC[C@H](CN2CC[C@@]3(S(=O)(=O)c4ccc(F)cc4)c4ccc(OCc5c(F)cccc5C(F)(F)F)cc4CC[C@@H]23)CC1 [Example 10]
10,19 nM,"Cc1ccccc1Cc1ccc2c(c1)CC[C@H]1N(C(=O)[C@]3(C)CC[C@@H](C(=O)O)CC3)CC[C@@]21S(=O)(=O)c1ccc(F)cc1 [Example 12, (1R,4r)-4-((3aR,9bR)-9b-((4-fluorophenyl)sulfonyl)-7-(2-methylbenzyl)-2,3,3a,4,5,9b-hexahydro-1H-benzo[e]indole-3-carbonyl)-4-methylcyclohexane-1-carboxylic acid]"
11,1.5 nM,"O=C(C1CCC(B(O)O)CC1)N1CC[C@@]2(S(=O)(=O)c3ccc(F)cc3)c3ccc(OCc4c(F)cccc4C(F)(F)F)cc3CC[C@@H]12 (stereo partly drawn) [Example 13, (4-((3aR,9bR)-7-((2-fluoro-6-(trifluoromethyl)benzyl)oxy)-9b-((4-fluorophenyl)sulfonyl)-2,3,3a,4,5,9b-hexahydro-1H-benzo[e]indole-3-carbonyl)cyclohexyl)boronic acid]"
12,1.8 nM,"O=C(C1CCC(B(O)O)CC1)N1CC[C@@]2(S(=O)(=O)c3ccc(F)cc3)c3ccc(OCc4c(F)cccc4C(F)(F)F)cc3CC[C@@H]12 (stereo partly drawn) [Example 14, (4-((3aR,9bR)-7-((2-fluoro-6-(trifluoromethyl)benzyl)oxy)-9b-((4-fluorophenyl)sulfonyl)-2,3,3a,4,5,9b-hexahydro-1H-benzo[e]indole-3-carbonyl)cyclohexyl)boronic acid]"
13,3.8 nM,"O=C(CC1CCS(=O)(=O)C1)N1CC[C@@]2(S(=O)(=O)c3ccc(F)cc3)c3ccc(OCc4c(F)cccc4Cl)cc3CC[C@@H]12 (stereo partly drawn) [Example 15, 3-{2-[(3aR,9bR)-7-[(2-chloro-6-fluorophenyl)methoxy]-9b-(4-fluorobenzenesulfonyl)-1H,2H,3H,3aH,4H,5H,9bH-benzo[e]indol-3-yl]-2-oxoethyl}-1λ^6-thiolane-1,1-dione]"
14,5.5 nM,"O=C(N1CC[C@@]2(S(=O)(=O)c3ccc(F)cc3)c3ccc(OCc4c(F)cccc4Cl)cc3CC[C@@H]12)C1(O)CCS(=O)(=O)CC1 [Example 16, 4-[(3aR,9bR)-7-[(2-chloro-6-fluorophenyl)methoxy]-9b-(4-fluorobenzenesulfonyl)-1H,2H,3H,3aH,4H,5H,9bH-benzo[e]indole-3-carbonyl]-4-hydroxy-1λ^6-thiane-1,1-dione]"
15,6 nM,"O=C(C1CCS(=O)(=O)C1)N1CC[C@@]2(S(=O)(=O)c3ccc(F)cc3)c3ccc(OCc4c(F)cccc4Cl)cc3CC[C@@H]12 (stereo partly drawn) [Example 18, 3-[(3aR,9bR)-7-[(2-chloro-6-fluorophenyl)methoxy]-9b-(4-fluorobenzenesulfonyl)-1H,2H,3H,3aH,4H,5H,9bH-benzo[e]indole-3-carbonyl]-1λ^6-thiolane-1,1-dione]"
16,14 nM,CC1(C(=O)N2CC[C@@]3(S(=O)(=O)c4ccc(F)cc4)c4ccc(OCc5c(F)cccc5C(F)(F)F)cc4CC[C@@H]23)CCS(=O)(=O)CC1 [Example 19]
17,42 nM,"O=C([C@@H](O)C(F)(F)F)N1CC[C@@]2(S(=O)(=O)c3ccc(F)cc3)c3ccc(OCc4c(F)cccc4C(F)(F)F)cc3CC[C@@H]12 [Example 20, (2R)-1-[(3aR,9bR)-7-{[2-fluoro-6-(trifluoromethyl)phenyl]methoxy} -9b-(4-fluorobenzenesulfonyl)-1H,2H,3H,3aH,4H,5H,9bH-benzo[e]indol-3-yl]-3,3,3-trifluoro-2-hydroxypropan-1-one]"
18,10 nM,"C[C@]1(C(=O)O)CC[C@H](C(=O)N2CC[C@@]3(S(=O)(=O)c4ccc(F)cc4)c4ccc(OCc5c(F)cccc5Cl)cc4CC[C@@H]23)CC1 [Example 21, (1r,4r)-4-[(3aR,9bR)-7-[(2-chloro-6-fluorophenyl)methoxy]-9b-(4-fluorobenzenesulfonyl)-1H,2H,3H,3aH,4H,5H,9bH-benzo[e]indole-3-carbonyl]-1-methylcyclohexane-1-carboxylic acid]"
19,17 nM,"C[C@@H]1C[C@@H](C(=O)O)CC[C@@H]1C(=O)N1CC[C@@]2(S(=O)(=O)c3ccc(F)cc3)c3ccc(OCc4c(F)cccc4Cl)cc3CC[C@@H]12 [Example 22, (1S,3R,4S)-4-[(3aR,9bR)-7-[(2-chloro-6-fluorophenyl)methoxy]-9b-(4-fluorobenzenesulfonyl)-1H,2H,3H,3aH,4H,5H9bH-benzo[e]indole-3-carbonyl]-3-methylcyclohexane-1-carboxylic acid]"
20,55 nM,"O=C(O)[C@H]1CC[C@](O)(C(=O)N2CC[C@@]3(S(=O)(=O)c4ccc(F)cc4)c4ccc(OCc5c(F)cccc5Cl)cc4CC[C@@H]23)CC1 [Example 23, (1s,4s)-4-[(3aR,9bR)-7-[(2-chloro-6-fluorophenyl)methoxy]-9b-(4-fluorobenzenesulfonyl)-1H,2H,3H,3aH,4H,5H,9bH-benzo[e]indole-3-carbonyl]-4-hydroxycyclohexane-1-carboxylic acid]"
21,20 nM,"C[C@]1(C(=O)O)CC[C@H](C(=O)N2CC[C@@]3(S(=O)(=O)c4ccc(F)cc4)c4ccc(OCc5c(F)cccc5C(F)(F)F)cc4CC[C@@H]23)CC1 [Example 25, (1r,4r)-4-[(3aR,9bR)-7-{[2-fluoro-6-(trifluoromethyl)phenyl]methoxy}-9b-(4-fluorobenzenesulfonyl)-1H,2H,3H,3aH,4H,5H,9bH-benzo[e]indole-3-carbonyl]-1-methylcyclohexane-1-carboxylic acid]"
